Where two headings read alike, the source gives them in different places. Square brackets hold non-standard residues; d marks the D form. Ends that are not written are not given here. Peptide text beside a SMILES is read from it.
Legend:
HUVEC [1] = details: for Span: span of fitted dose-response curve, VEGF + bFGF-induced HUVEC proliferation relative to lowest and highest dose of CRIVi45-51
Protocol: HUVEC were seeded at 14,000 cells cm^−2 in a 96-well plate and, after 24 h, starved with 0.5% FBS for 12 h. The medium was refreshed with 20% FBS-F12K and incubated with 100 μg mL^−1 heparin together with 25 ng mL^−1 VEGF and 20 ng mL^−1 bFGF for 24 h in combination with a single dose (100 nM) or different concentrations of PRL, vasoinhibin, or synthetic oligopeptides. DNA synthesis was quantified by the DNA incorporation of the thymidine analog 5-ethynyl-2’-deoxyuridine (EdU, Sigma) labeled by the click reaction with fluorescent Azide Fluor 545 (Sigma-Aldrich) as reported.
Endothelial cell proliferation. BUVEC-E6E7 cells seeded at 14,000 cells cm^-2 in a 96-well plate were starved with 0.1% FBS for 24 h and treated or not with VEGF (50 ng mL^-1) in starvation medium with or without different concentrations of five peptides synthesized along the 45 to 58 residue sequence of human PRL or with recombinant vasoinhibin of 123 amino acids (positive control). HUVEC cells were seeded at 14,000 cells cm^-2 in a 96-well plate for 24 h and starved with 0.5% FBS for 12 h. Medium was then replaced by 20% FBS-F12K and 100 μg mL^-1 heparin containing or not VEGF (25 ng mL^-1), bFGF (20 ng mL^-1), IL-1b (10 ng mL^-1), or BK (10 μM) or a combination of 25 ng mL^-1 of VEGF and 20 ng mL^-1 of bFGF for 24 h in the presence or absence of a single dose (100 nM) or different doses of PRL (negative control), recombinant vasoinhibin, Vi45-51, synthetic peptides having the same residue composition as the 45-51 segment but in scrambled order (negative control), Vi45-51 subjected to alanine scanning mutagenesis, a tripeptide comprising residues 46 to 48 of vasoinhibin (Vi46-48), a Vi45-51 where G47 was deleted (des-G^47), a conserved version of the Vi45-51 (cVi45-51) and the QGR tripeptide, heptapeptides comprising residues 39 to 45 of growth hormone (GH39-45) or placental lactogen (PL39-45), tripeptides EQK and QKY, the dipeptide QK (Table S2), alanine mutants of the vasoinhibin with 123 residues (Vi-H46A, Vi-R48A, Vi-H46A/R48A), alanine mutants of PRL (PRL-E161A, PRL-E162A, PRL-E161A/E162A), CRIVi45-51, antiangiogenic proteins (endostatin, angiostatin), antiangiogenic oligopeptides (anginex, cilengitide), or antiangiogenic tyrosine-kinase inhibitors (pazopanib, sunitinib, sorafenib). DNA synthesis was quantified by the DNA incorporation of the thymidine analogue 5-ethynyl-2’-deoxyuridine (EdU, Sigma) added at the time of treatments and labelled by the click reaction with fluorescent Azide Fluor 545 (Sigma-Aldrich) as reported. Images were obtained in a fluorescent inverted microscope (Olympus IX51, Japan) and quantified using the CellProfiler software. The number of EdU-positive cells over total DNA (Hoechst)-stained cells was expressed as percentage proliferation. B16-F10 cells and HUVEC were seeded at 12,600 cells cm^-2 and 7,400 cells cm^-2, respectively, in a 24-well plate and incubated for different times in complete medium in the absence or presence of 100 nM CRIVi45-51 added every 24 h. Cells were trypsinized and counted.

[2] = Heat treatment, residual antiproliferative activity; format: physicochemical; details: 2 μM solution, 97 °C, 15 min; read-out inhibition of VEGF + bFGF-induced HUVEC proliferation at 10 nM, n = 9
B16-F10 melanoma tumors = experiment: B16-F10 melanoma tumor model; format: in vivo; details: C57BL6 mice
Protocol: The mouse model of primary tumor development based on the use of B16-F10 melanoma cells was used as previously reported. Briefly, anesthetized female C57BL6 mice (8–12 weeks-old) were inoculated into their right flank with 10^5 B16-F10 cells. Five days after tumor cell inoculation, mice were treated daily with vehicle (NS) or CRIVi45–51 injected into the lateral tail vein or via intragastric gavage for the 8 d following tumor cell injection. Animals were then euthanized by cervical dislocation and the tumors weighted and processed to evaluate blood vessels by immunofluorescence or RT-qPCR.
Tumor model. Female C57BL6 mice (8-12 weeks-old) under 2.5% isoflurane anesthesia (SomnoSuite system, Kent Scientific, Torrington, CT) were inoculated into their right flank with 10^5 B16-F10 cells in 50 μL PBS. Tumor length and width were measured daily, and volume was estimated by the formula: Volume = (length x width^2) x 0.5. Five days after tumor cell inoculation, mice were injected daily into the lateral tail vein with vehicle (normal saline) or 0.1 or 1.0 mg kg^-1 CRIVi45-51, and tumor volumes were assessed daily for the following 8 d. In other experiments, 1.0 mg kg^-1 CRIVi45-51 or vehicle was delivered daily intragastrically through a 20G x 1.5’’ curved metal gavage canula (Cadence Science, Staunton, VA) for the 8 d following tumor cell injection. Animals were then euthanized by cervical dislocation and the tumors processed or frozen to evaluate blood vessels by immunofluorescence or RT-qPCR, respectively. […] Tumor sections were cover-slipped with Vectashield H-1000 (Vector Laboratories) and digitalized at 20X and 40X magnification under a fluorescence microscope (Olympus BX60). The number of vessels per tumor area measured vascular density. CD-31 and VE-Cad mRNA levels were quantified by RT-qPCR following the method already described in the retinal angiogenesis assay section.

B16-F10 cells = experiment: B16-F10 cell growth in vitro (cell counting); format: cell-based, mouse; details: 100 nM added every 24 h, cell density over time, n = 9
Protocol: (§1) Endothelial cell proliferation. BUVEC-E6E7 cells seeded at 14,000 cells cm^-2 in a 96-well plate were starved with 0.1% FBS for 24 h and treated or not with VEGF (50 ng mL^-1) in starvation medium with or without different concentrations of five peptides synthesized along the 45 to 58 residue sequence of human PRL or with recombinant vasoinhibin of 123 amino acids (positive control). HUVEC cells were seeded at 14,000 cells cm^-2 in a 96-well plate for 24 h and starved with 0.5% FBS for 12 h. […] DNA synthesis was quantified by the DNA incorporation of the thymidine analogue 5-ethynyl-2’-deoxyuridine (EdU, Sigma) added at the time of treatments and labelled by the click reaction with fluorescent Azide Fluor 545 (Sigma-Aldrich) as reported. Images were obtained in a fluorescent inverted microscope (Olympus IX51, Japan) and quantified using the CellProfiler software. The number of EdU-positive cells over total DNA (Hoechst)-stained cells was expressed as percentage proliferation. […] Cells were trypsinized and counted.

HUVEC [3] = experiment: HUVEC cell density over time (cell counting); format: cell-based, human; details: 100 nM added every 24 h, complete medium, n = 9
Protocol: as §1

pepsin = pepsin (Sus scrofa, UniProt P00791); experiment: Pepsin digestion, residual antiproliferative activity; details: 4 μM, 1:20 protease to substrate molar ratio, 40 mM HCl, 37 °C, 5 h; read-out inhibition of VEGF + bFGF-induced HUVEC proliferation at 10 nM, n = 9
[4] = VEGF 25 ng/mL + bFGF 20 ng/mL-induced HUVEC proliferation, 24 h, EdU incorporation, non-linear best fit, n = 9

Sequence of pepsin (P00791 60-385): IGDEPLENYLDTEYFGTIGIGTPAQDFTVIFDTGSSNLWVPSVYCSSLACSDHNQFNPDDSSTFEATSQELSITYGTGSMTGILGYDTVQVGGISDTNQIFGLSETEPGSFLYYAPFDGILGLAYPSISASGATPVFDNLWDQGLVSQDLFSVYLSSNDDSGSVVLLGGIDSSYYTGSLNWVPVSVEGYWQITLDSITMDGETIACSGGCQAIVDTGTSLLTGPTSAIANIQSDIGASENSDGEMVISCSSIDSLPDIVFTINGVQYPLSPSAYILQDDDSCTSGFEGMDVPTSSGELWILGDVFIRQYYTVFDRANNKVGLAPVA

## Angiostatin
HUVEC [1]; [4]
  IC50: 0.388 nM
HUVEC [1]; non-linear best fit, n = 9
  Span: 68.47%

## Ac-THGRGFI-NH2 [Vi45–51, vasoinhibin-(45-51)-peptide]
HUVEC [1]; 24 h
  IC50: ~0.15 nM

## CNC(=O)c1cc(Oc2ccc(NC(=O)Nc3ccc(Cl)c(C(F)(F)F)c3)cc2)ccn1 [Sorafenib, reference compound]
HUVEC [1]; non-linear best fit, n = 9
  Span: 106.00%

## ANIKLSVQMKLFKRHLKWKIIVKLNDGRELSLD [Anginex, reference compound]
HUVEC [1]; non-linear best fit, n = 9
  Span: 73.13%

## Endostatin
HUVEC [1]; [4]
  IC50: 31.2 nM
HUVEC [1]; non-linear best fit, n = 9
  Span: 49.98%

## CCN(CC)CCNC(=O)c1c(C)[nH]c(/C=C2\C(=O)Nc3ccc(F)cc32)c1C [Sunitinib, reference compound]
HUVEC [1]; non-linear best fit, n = 9
  Span: 93.64%

## Cc1ccc(Nc2nccc(N(C)c3ccc4c(C)n(C)nc4c3)n2)cc1S(N)(=O)=O [Pazopanib, reference compound]
HUVEC [1]; non-linear best fit, n = 9
  Span: 83.73%

## CC[C@@H](C)[C@H]1NC(=O)[C@@H]([C@H](C)O)NC(=O)[C@@H](Cc2c[nH]cn2)NC(=O)CNC(=O)[C@@H](CCCNC(=N)N)NC(=O)CNC(=O)[C@@H](Cc2ccccc2)NC1=O [CRIVi45–51, cyclic-retro-inverse-vasoinhibin-(45–51)-peptide] (cyclo([dI][dF]G[dR]G[dH][dT]))
HUVEC [1]; ratio of IC50 values, VEGF + bFGF-induced HUVEC proliferation
  fold lower IC50 than other antiangiogenic proteins (endostatin and angiostatin) and peptides (anginex and cilengitide): 2.7- to 214 fold
HUVEC [1]; non-linear best fit, n = 9
  Span: 86.86%
[2]
  activity after heat inactivation: retained full activity
B16-F10 melanoma tumors; B16-F10, 1.0 mg/kg daily intragastric gavage, 8 d, n = 9
  tumor growth, oral administration: decreased tumor growth with similar efficacy to intravenous delivery
B16-F10 melanoma tumors; B16-F10, daily i.v. 0.1 or 1.0 mg/kg for 8 d from day 5, n = 9
  tumor growth, intravenous: reduced tumor growth in a dose-related manner
B16-F10 melanoma tumors; B16-F10 tumors, daily i.v., n = 9
  tumor vascular density and expression of CD31: reduce
B16-F10 cells
  growth of melanoma cells in vitro: did not inhibit
HUVEC [3]
  HUVEC cell density over time: reduces proliferation
pepsin
  resistance to pepsin degradation: resistant

B1: PRL: Recombinant human prolactin (protein, UniProt P01236 29-227, looked up)
Prolactin: LPICPGGAARCQVTLRDLFDRAVVLSHYIHNLSSEMFSEFDKRYTHGRGFITKAINSCHTSSLATPEDKEQAQQMNQKDFLSLIVSILRSWNEPLYHLVTEVRGMQEAPEAILSKAVEIEEQTKRLLEGMELIVSQVHPETKENEIYPVWSGLPSLQMADEESRLSAYYNLLHCLRRDSHKIDNYLKLLKCRIIHNNNC
HUVEC [1]; VEGF 25 ng/mL + bFGF 20 ng/mL, 24 h, EdU, n = 9
  dose-response inhibition of VEGF + bFGF-induced HUVEC proliferation (result in words): not antiangiogenic

Source: paper PMC8813873, “The HGR motif is the antiangiogenic determinant of vasoinhibin: implications for a therapeutic orally active oligopeptide” (Angiogenesis, 2021)
